In one assay the target is T1, ALDH1A1 (Homo sapiens, UniProt P00352).
T1 sequence (P00352 1-501): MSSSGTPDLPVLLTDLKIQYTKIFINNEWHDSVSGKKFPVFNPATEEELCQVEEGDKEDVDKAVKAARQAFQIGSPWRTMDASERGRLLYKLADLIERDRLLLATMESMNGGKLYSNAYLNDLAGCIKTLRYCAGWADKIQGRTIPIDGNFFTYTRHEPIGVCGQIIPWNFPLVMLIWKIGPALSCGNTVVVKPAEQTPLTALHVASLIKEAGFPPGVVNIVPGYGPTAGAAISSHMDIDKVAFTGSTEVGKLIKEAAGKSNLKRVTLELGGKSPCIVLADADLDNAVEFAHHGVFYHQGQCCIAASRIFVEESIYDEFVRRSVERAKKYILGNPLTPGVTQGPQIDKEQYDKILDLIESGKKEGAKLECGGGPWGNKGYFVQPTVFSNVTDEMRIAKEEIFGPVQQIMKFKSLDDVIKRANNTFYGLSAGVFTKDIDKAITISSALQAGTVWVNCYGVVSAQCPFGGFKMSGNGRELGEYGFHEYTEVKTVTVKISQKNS
The assay is described as follows: Cell-based enzyme assay, retinoic acid production in ALDH1A1/H1299 cells. As for the experimental part: (§1) ALDH1A1 cDNA clone was purchased transfection-ready, and ALDH1A2 full-length cDNA was subcloned into pcDNA3, a mammalian expression vector. ALDH1A1 and ALDH1A2 were transfected into H1299 cells (CRL5803, ATCC) using Lipofectamine 3000 (Invitrogen) following the manufacturer's instructions. Stably transfected cells were selected with G418 (1.2 mg/ml) and referred to as ALDH1A1/H1299 and ALDH1A2/H1299. For the cell-based enzyme assays,
(§2) H1299 cells were routinely grown in RPMI-1640 (ATCC) supplemented with 10% fetal bovine serum (Atlanta Biologicals) in a 37 C, 5% CO2, moisture-saturated atmosphere. H1299, ALDH1A1/H1299 and ALDH1A2/H1299 cells were seeded into 12-well plates (1×10^5 cells/well) and grown for 2 days to confluence. Confluent cells were treated for 20 hours in the above media excluding serum with 2 μM all-trans-retinal, and varying concentrations of inhibitors. Serum-free media was used for the treatment period to avoid retinoic acid in serum. Retinoic acid concentrations were determined from cells and media, and specificity of inhibitors was determined by comparing retinoic acid levels in the presence and absence of the inhibitors in ALDH1A1- vs. ALDH1A2-expressing cells.

In assay [1] the target is T2, ALDH1A2 (Homo sapiens, UniProt O94788).
T2 sequence (O94788 1-518): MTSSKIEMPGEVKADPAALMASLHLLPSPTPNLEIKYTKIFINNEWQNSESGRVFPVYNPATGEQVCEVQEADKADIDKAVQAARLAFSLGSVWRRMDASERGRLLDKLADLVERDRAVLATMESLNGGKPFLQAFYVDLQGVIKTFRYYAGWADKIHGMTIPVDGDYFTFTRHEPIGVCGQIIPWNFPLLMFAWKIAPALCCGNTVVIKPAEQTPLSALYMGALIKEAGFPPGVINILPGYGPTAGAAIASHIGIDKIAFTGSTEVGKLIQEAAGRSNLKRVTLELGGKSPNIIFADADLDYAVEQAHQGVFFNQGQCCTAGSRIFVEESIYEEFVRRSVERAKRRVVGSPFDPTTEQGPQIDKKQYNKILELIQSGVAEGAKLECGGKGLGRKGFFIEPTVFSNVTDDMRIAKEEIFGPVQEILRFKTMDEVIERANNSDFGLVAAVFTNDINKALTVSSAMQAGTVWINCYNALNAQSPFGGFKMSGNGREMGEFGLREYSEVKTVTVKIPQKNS
The assay is described as follows: Cell-based enzyme assay, retinoic acid production in ALDH1A2/H1299 cells. As for the experimental part: as §1, §2

The target of assay [2] is T2, ALDH1A2. The assay is described as follows: Inhibitor screening using purified enzymes: ALDH1A2 activity, retinoic acid production by HPLC (5 uM initial screen, then IC50). Type of assay: biochemical. On the set-up: histidine-tag (C); made in house; host or cells: bacterial expression (pET28 vector, IPTG induction). The settings on record: purified enzyme. An excerpt: ALDHs were cloned into bacterial expression vector for in vitro enzyme assays and into mammalian expression vectors for cell-based enzyme assays. Human ALDH1A1 cDNA and human ALDH2 cDNA were purchased from OriGene (SC321535) and Open Biosystems (MHS4771-99611182), respectively. and human ALDH1A2 cDNA was cloned from human testis RNA using RT-PCR (Population Division of the Department of Economic and Social Affairs of the United Nations Secretariat. World Population prospects: the 2008 revision. Available at http://www.un.org/esa/population/ (Retrieved Sep. 30, 2011)). For bacterial expression, an open reading frame of ALDH1A1 and ALDH2 were subcloned into the pETite vector (Lucigen) with a 5′ histidine-tag and that of ALDH1A2 into a pET28 vector (Novagen) with a 3′ histidine-tag. Correct frame and sequences were verified through DNA sequencing (UW DNA sequencing facility). ALDHs were induced with 1 mM IPTG and purified using His.Bind resin (Novagen, San Diego, Calif.) and stored in a buffer containing 20 mM Hepes (pH 8), 150 mM KCl and 1 mM EDTA as previously described (Fierce, Y., de Morais Vieira, M., Piantedosi, R., Wyss, A., Blaner, W. S., and Paik, J. (2008) In vitro and in vivo characterization of retinoid synthesis from beta-carotene. Archives of biochemistry and biophysics 472, 126-138).
ALDH1A1 and ALDH1A2 activity was determined as previously reported (Beedle M T, Stevison F, Zhong G, Topping T, Hogarth C, Isoherranen N, Griswold M D. Sources of All-Trans Retinal Oxidation Independent of the Aldehyde Dehydrogenase 1A Isozymes Exist in the Postnatal Testis. Biol Reprod. 2018 Sep. 21. doi: 10.1093/biolre/ioy200). Briefly, purified enzymes were incubated in a buffer containing 10 mM HEPES buffer (pH 8.0), 150 mM potassium chloride and 2 mM EDTA with 2 mM NAD. Retinoic acid production was determined using HPLC as previously reported (Amory J K, Muller C H, Shimshoni A J, Isoherranen N, Paik J, Moreb J S, Amory D W, Evanoff R, Goldstein A S, Griswold M D. Suppression of spermatogenesis by bisdichloroacetyldiamines is mediated by inhibition of testicular retinoic acid biosynthesis. Journal of Andrology 2011; 32(1):111-119). Inhibitors were diluted in DMSO and added to the reactions. […] For initial screening of inhibitors for ALDH1A2, 1 μg ALDH1A2, 5 μM all-trans-retinal and 5 μM inhibitors were incubated for 15 min at 37° C. […] For this purpose, 0.5 μg ALDH1A2 and […] were incubated for 5 minutes at 37° C. with varying concentrations of inhibitors. To determine specificity toward ALDH1A2, the IC50 for […]

Read-outs that look alike come from different tables or passages of the source.

For the compound `COC(=O)c1ccc(-n2cc(C(=O)Nc3cccc(F)c3)c(-c3ccc(S(C)(=O)=O)cc3)n2)cc1` [Compound 273, Methyl 4-{4-[(3-fluorophenyl)carbamoyl]-3-[4-(methylsulfonyl)phenyl]-1H-pyrazol-1-yl} benzoate], the EC50 (as a rule, the concentration at which the effect is half-maximal) was 5.63 µM on ALDH1A1 (cell-based) and 0.045 µM at ALDH1A2 [1] (cell-based). The IC50 (commonly the concentration needed to halve the response being measured) against ALDH1A2 [2] came to 0.179 µM.

For `CN(C)C(=O)c1ccc(-n2cc(C(=O)Nc3cccc(F)c3)c(-c3ccc(S(C)(=O)=O)cc3)n2)cc1` [Compound 286, 1-(4-Dimethylcarbomylphenyl)-3-[4-(methylsulfonyl)phenyl]-N-(3-fluorophenyl)-1H-pyrazole-4-carboxamide], the EC50 on ALDH1A1 (cell-based) was more than 20 µM; on ALDH1A2 [1] (cell-based), 0.11 µM.

Regarding `CS(=O)(=O)c1ccc(-c2nn(-c3ccc(C=O)cc3)cc2C(=O)Nc2cccc(F)c2)cc1` [Compound 280, 1-(4-Formylphenyl)-3-[4-(methylsulfonyl)phenyl]-N-(3-fluorophenyl)-1H-pyrazole-4-carboxamide], the EC50 on ALDH1A1 (cell-based) was more than 20 µM; at ALDH1A2 [1] (cell-based) it was 0.3 µM. Besides, the IC50 at ALDH1A2 [2] is more than 5 µM.

For `O=C(O)c1ccc(-n2cc(C(=O)Nc3cccc(F)c3)c(-c3ccc(O)cc3)n2)cc1` [Compound 306, 4-{4-[(3-Fluorophenyl)carbamoyl]-3-(4-hydroxyphenyl)-1H-pyrazol-1-yl}benzoic acid], the values for the EC50 at ALDH1A1 (cell-based) and on ALDH1A2 [1] (cell-based) were 9.62 µM and 0.15 µM, respectively.

With “Methyl 4-{4-[(2-hydroxyphenyl)carbamoyl]-[4-(methylsulfonyl)phenyl]-1H-pyrazol-1-yl} benzoate [Compound 274]”, the concentration giving a half-maximal response (EC50) on ALDH1A1 (cell-based) turned out to be 2.23 µM; at ALDH1A2 [1] (cell-based), 0.008 µM. The compound also displayed an IC50 against ALDH1A2 [2] of 0.131 µM.

Take `CS(=O)(=O)c1ccc(-c2nn(-c3ccc(C(N)=O)cc3)cc2C(=O)Nc2cccc(F)c2)cc1` [Compound 283, 1-(4-Carbomylphenyl)-3-[4-(methylsulfonyl)phenyl]-N-(3-fluorophenyl)-1H-pyrazole-4-carboxamide]: the EC50 turned out to be 18.4 µM on ALDH1A1 (cell-based) and 0.4 µM at ALDH1A2 [1] (cell-based).

Turning to `CC(=O)Oc1ccc(-c2nn(-c3ccccc3)cc2C=O)cc1` [Cmpd 35], the results for the EC50 at ALDH1A1 (cell-based) and at ALDH1A2 [1] (cell-based) were 3.38 µM and 0.952 µM, respectively.

Consider “1-(4-Hydroxymethylphenyl)-3-[4-(methylsulfonyl)phenyl]-N-(3-fluorophenyl)-1H-pyrazole-4-carboxamide [Compound 282]”, for which the EC50 is more than 20 µM on ALDH1A1 (cell-based) and 0.24 µM on ALDH1A2 [1] (cell-based).

Take `CC(=O)Oc1ccccc1OC(=O)c1cn(-c2cccc(Cl)c2)nc1-c1ccc(S(C)(=O)=O)cc1` [Compound 291, 2-(Acetyloxy)phenyl 1-(3-chlorophenyl)-3-[4-(methylsulfonyl)phenyl]-1H-pyrazole-4-carboxylate]: the EC50 on ALDH1A1 (cell-based) is more than 20 µM; at ALDH1A2 [1] (cell-based) it was 0.042 µM.

For `CNC(=O)c1ccc(-n2cc(C(=O)Nc3cccc(F)c3)c(-c3ccc(S(C)(=O)=O)cc3)n2)cc1` [Compound 285, 1-(4-Methylcarbomylphenyl)-3-[4-(methylsulfonyl)phenyl]-N-(3-fluorophenyl)-1H-pyrazole-4-carboxamide], the EC50 was 0.81 µM at ALDH1A1 (cell-based) and 0.25 µM at ALDH1A2 [1] (cell-based).

For `Cn1cccc1C(=O)N1CCN(c2ccc(NC(=O)C(Cl)Cl)c(N3CCCCCC3)c2)CC1` [Compound 381, {4-[4-Dichloroacetamido-3-(azepan-1-yl)phenyl]piperazin-1-yl}(1-methyl-1H-pyrrol-2-yl)methanone], the EC50 on ALDH1A1 was 0.059 µM; on ALDH1A2 [1] it was more than 5 µM. Also, at ALDH1A2 [2], the IC50 was 18.5 µM.

Consider `CS(=O)(=O)c1ccc(-c2nn(-c3ccc(F)cc3)cc2C(=O)Nc2cccc(C(F)(F)F)c2)cc1` [Compound 256, N-(3-Trifluoromethylphenyl)-1-(4-fluorophenyl)-3-[4-(methylsulfonyl)phenyl]-1H-pyrazole-4-carboxamide], for which the EC50 on ALDH1A1 (cell-based) was 46 µM; on ALDH1A2 [1] (cell-based) it was 0.011 µM. Besides, the IC50 on ALDH1A2 [2] came out at 0.112 µM.
